Legend:
SGK3 = SGK3 (Homo sapiens (Human), UniProt Q96BR1); assay: ActivX kinase probe assay (human PBMC); format: binding; conditions: SGK3, read-out: percent inhibition
PI4KB = PI4KB (Homo sapiens (Human), UniProt Q9UBF8); assay: ActivX kinase probe assay (human PBMC); format: binding; conditions: PI4KB, read-out: percent inhibition
FES = FES (Homo sapiens (Human), UniProt P07332); assay: ActivX kinase probe assay (human PBMC); format: binding; conditions: FES, read-out: percent inhibition
MAP3K4 = MAP3K4 (Homo sapiens (Human), UniProt Q9Y6R4); assay: ActivX kinase probe assay (human PBMC); format: binding; conditions: MAP3K4, read-out: percent inhibition
MST3 = MST3 (Homo sapiens (Human), UniProt Q9Y6E0); assay: ActivX kinase probe assay (human PBMC); format: binding; conditions: MST3, read-out: percent inhibition
LOK = LOK (Homo sapiens (Human), UniProt O94804); assay: ActivX kinase probe assay (human PBMC); format: binding; conditions: LOK, read-out: percent inhibition
AMPKa1 = AMPKa1 (Homo sapiens (Human), UniProt Q13131); assay: ActivX kinase probe assay (human PBMC); format: binding; conditions: AMPKa1, read-out: percent inhibition
PIK3CG = PIK3CG (Homo sapiens (Human), UniProt P48736); assay: ActivX kinase probe assay (human PBMC); format: binding; conditions: PIK3CG, read-out: percent inhibition
PRPK = PRPK (Homo sapiens (Human), UniProt Q96S44); assay: ActivX kinase probe assay (human PBMC); format: binding; conditions: read-out: percent inhibition
Method: Certain of the compounds of the present invention were assessed for kinase selectivity using a commercially available ActiveX targeted kinase probe in which the tissue employed was human peripheral blood mononuclear cells (PBMC). The test compounds were provided to ActivX Biosciences, Inc., 11025 North Torrey Pines Road, Suite 120; LaJolla, Calif., USA 92037. The compounds were run in the ActivX proprietary kinase assay and results were obtained at compound test concentrations of 1 μM (columns 2, 4 and 6) and 0.1 μM (columns 3, 5 and 7). The results as percent inhibition obtained for the compounds of Examples 1, 4 and 217 are provided below in Table 3.

GSK3B = GSK3B (Homo sapiens (Human), UniProt P49841); assay: ActivX kinase probe assay (human PBMC); format: binding; conditions: GSK3B, read-out: percent inhibition
CDK2 = CDK2 (Homo sapiens (Human), UniProt P24941); assay: ActivX kinase probe assay (human PBMC); format: binding; conditions: CDK2, read-out: percent inhibition
PIK3CB = PIK3CB (Homo sapiens (Human), UniProt P42338); assay: ActivX kinase probe assay (human PBMC); format: binding; conditions: PIK3CB, read-out: percent inhibition
NEK9 = NEK9 (Homo sapiens (Human), UniProt Q8TD19); assay: ActivX kinase probe assay (human PBMC); format: binding; conditions: NEK9, read-out: percent inhibition
CaMK2g = CaMK2g (Homo sapiens (Human), UniProt Q13555); assay: ActivX kinase probe assay (human PBMC); format: binding; conditions: CaMK2g, read-out: percent inhibition
TAO1, TAO3 = assay: ActivX kinase probe assay (human PBMC); format: binding
MLKL = MLKL (Homo sapiens (Human), UniProt Q8NB16); assay: ActivX kinase probe assay (human PBMC); format: binding; conditions: MLKL, read-out: percent inhibition
ACK = ACK (Homo sapiens (Human), UniProt Q07912); assay: ActivX kinase probe assay (human PBMC); format: binding; conditions: ACK, read-out: percent inhibition
IRAK3 = IRAK3 (Homo sapiens (Human), UniProt Q9Y616); assay: ActivX kinase probe assay (human PBMC); format: binding; conditions: IRAK3, read-out: percent inhibition
RSK1, RSK2, RSK3 domain1 = assay: ActivX kinase probe assay (human PBMC); format: binding
CaMK1d = CaMK1d (Homo sapiens (Human), UniProt Q8IU85); assay: ActivX kinase probe assay (human PBMC); format: binding; conditions: CaMK1d, read-out: percent inhibition
[1] = test system: ZC1/HGK, ZC2/TNIK, ZC3/MINK; assay: ActivX kinase probe assay (human PBMC); format: binding
GCK = GCK (Homo sapiens (Human), UniProt Q12851); assay: ActivX kinase probe assay (human PBMC); format: binding; conditions: GCK, read-out: percent inhibition
PYK2 = PYK2 (Homo sapiens (Human), UniProt Q14289); assay: ActivX kinase probe assay (human PBMC); format: binding; conditions: PYK2, read-out: percent inhibition
RSKL1 domain1 = RSKL1 domain1 (Homo sapiens (Human), UniProt Q96S38); assay: ActivX kinase probe assay (human PBMC); format: binding; conditions: RSKL1 domain1, read-out: percent inhibition
JAK2 domain2 = JAK2 domain2 (Homo sapiens (Human), UniProt O60674); assay: ActivX kinase probe assay (human PBMC); format: binding; conditions: JAK2 domain2, read-out: percent inhibition
GCN2 = GCN2 (Homo sapiens (Human), UniProt Q9P2K8); assay: ActivX kinase probe assay (human PBMC); format: binding; conditions: GCN2, read-out: percent inhibition
mutant G2019S LRRK2 = mutant G2019S LRRK2 (Homo sapiens (Human), UniProt Q5S007, G2019S); assay: LRRK2 Lantha Screen kinase assay, mutant enzyme; format: biochemical; conditions: geometric mean of 2-5 determinations unless otherwise indicated (a: >=6 determinations; b: single determination)
CDK11, CDK8 = assay: ActivX kinase probe assay (human PBMC); format: binding
GSK3A = GSK3A (Homo sapiens (Human), UniProt P49840); assay: ActivX kinase probe assay (human PBMC); format: binding; conditions: GSK3A, read-out: percent inhibition
BRAF = BRAF (Homo sapiens (Human), UniProt P15056); assay: ActivX kinase probe assay (human PBMC); format: binding; conditions: BRAF, read-out: percent inhibition
NDR2 = NDR2 (Homo sapiens (Human), UniProt Q9Y2H1); assay: ActivX kinase probe assay (human PBMC); format: binding; conditions: NDR2, read-out: percent inhibition
ILK = ILK (Homo sapiens (Human), UniProt Q13418); assay: ActivX kinase probe assay (human PBMC); format: binding; conditions: ILK, read-out: percent inhibition

Chain of CaMK1d (Q8IU85 whole entry): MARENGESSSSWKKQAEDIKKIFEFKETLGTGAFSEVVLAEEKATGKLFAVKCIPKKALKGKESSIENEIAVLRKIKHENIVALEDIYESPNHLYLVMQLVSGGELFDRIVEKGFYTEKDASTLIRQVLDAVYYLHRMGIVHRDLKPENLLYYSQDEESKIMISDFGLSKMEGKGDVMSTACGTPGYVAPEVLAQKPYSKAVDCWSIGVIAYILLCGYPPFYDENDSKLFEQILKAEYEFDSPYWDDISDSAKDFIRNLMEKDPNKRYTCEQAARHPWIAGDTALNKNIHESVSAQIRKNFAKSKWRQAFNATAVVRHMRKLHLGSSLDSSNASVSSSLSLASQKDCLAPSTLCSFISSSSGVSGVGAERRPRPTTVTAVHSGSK
Chain of AMPKa1 (Q13131 whole entry): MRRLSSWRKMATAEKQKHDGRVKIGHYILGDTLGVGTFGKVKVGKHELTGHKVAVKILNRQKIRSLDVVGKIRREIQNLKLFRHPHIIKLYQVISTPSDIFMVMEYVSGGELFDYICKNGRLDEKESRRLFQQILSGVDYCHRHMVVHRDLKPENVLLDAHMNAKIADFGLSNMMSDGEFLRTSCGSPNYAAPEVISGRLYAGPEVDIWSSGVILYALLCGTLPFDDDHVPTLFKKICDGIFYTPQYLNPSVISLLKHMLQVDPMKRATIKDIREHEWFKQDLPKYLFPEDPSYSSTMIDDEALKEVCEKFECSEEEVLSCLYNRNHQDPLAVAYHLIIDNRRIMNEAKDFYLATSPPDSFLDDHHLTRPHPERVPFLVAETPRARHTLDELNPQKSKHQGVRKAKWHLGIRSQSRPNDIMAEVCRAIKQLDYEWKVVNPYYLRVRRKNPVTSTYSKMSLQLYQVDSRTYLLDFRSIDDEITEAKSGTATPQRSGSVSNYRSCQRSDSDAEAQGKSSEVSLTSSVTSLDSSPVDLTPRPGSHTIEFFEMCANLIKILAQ
Chain of AMPKa1 (Q9Y478 2-270 partner): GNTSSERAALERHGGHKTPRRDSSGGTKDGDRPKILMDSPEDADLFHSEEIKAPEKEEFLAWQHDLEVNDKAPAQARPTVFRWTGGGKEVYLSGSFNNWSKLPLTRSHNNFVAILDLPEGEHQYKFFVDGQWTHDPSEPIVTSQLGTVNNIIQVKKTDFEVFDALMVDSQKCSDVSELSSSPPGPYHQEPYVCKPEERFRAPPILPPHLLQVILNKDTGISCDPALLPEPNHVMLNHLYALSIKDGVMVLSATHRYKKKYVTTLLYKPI
Chain of AMPKa1 (P54619 whole entry partner): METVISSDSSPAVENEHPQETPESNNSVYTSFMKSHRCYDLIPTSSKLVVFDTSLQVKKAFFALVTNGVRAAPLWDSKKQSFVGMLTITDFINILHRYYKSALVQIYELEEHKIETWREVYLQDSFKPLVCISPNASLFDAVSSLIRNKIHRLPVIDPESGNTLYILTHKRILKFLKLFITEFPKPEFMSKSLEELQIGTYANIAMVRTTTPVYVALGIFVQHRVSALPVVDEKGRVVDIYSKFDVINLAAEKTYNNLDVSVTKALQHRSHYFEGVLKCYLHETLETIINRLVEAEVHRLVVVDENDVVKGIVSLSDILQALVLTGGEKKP
Chain of NEK9 (Q8TD19 whole entry): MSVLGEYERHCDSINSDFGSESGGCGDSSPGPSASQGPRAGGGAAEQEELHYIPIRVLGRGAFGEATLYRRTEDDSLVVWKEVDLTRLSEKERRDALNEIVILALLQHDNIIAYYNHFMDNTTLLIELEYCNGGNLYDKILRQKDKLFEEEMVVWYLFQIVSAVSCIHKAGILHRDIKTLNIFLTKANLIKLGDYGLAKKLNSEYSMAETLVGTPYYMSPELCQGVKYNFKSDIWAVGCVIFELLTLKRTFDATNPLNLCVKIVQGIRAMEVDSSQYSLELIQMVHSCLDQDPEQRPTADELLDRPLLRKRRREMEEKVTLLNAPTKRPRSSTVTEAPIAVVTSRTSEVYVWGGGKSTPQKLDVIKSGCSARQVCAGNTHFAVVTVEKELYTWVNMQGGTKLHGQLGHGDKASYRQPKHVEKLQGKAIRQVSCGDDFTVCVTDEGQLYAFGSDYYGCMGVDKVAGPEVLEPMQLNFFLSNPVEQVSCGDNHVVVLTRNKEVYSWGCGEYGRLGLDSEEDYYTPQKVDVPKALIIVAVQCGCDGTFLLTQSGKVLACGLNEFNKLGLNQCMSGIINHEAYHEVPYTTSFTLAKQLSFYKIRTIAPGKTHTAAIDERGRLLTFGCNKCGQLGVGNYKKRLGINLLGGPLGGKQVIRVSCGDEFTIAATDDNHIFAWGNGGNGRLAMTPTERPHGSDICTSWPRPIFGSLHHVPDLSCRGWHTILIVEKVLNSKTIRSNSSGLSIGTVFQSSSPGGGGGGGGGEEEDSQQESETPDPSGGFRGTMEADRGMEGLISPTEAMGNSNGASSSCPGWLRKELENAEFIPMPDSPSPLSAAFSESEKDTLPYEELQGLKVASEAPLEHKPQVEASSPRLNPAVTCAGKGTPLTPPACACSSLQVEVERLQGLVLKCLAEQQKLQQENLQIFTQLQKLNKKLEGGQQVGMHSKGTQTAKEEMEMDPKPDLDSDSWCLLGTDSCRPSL
Chain of IRAK3 (Q9Y616 whole entry, the tested form may be a part): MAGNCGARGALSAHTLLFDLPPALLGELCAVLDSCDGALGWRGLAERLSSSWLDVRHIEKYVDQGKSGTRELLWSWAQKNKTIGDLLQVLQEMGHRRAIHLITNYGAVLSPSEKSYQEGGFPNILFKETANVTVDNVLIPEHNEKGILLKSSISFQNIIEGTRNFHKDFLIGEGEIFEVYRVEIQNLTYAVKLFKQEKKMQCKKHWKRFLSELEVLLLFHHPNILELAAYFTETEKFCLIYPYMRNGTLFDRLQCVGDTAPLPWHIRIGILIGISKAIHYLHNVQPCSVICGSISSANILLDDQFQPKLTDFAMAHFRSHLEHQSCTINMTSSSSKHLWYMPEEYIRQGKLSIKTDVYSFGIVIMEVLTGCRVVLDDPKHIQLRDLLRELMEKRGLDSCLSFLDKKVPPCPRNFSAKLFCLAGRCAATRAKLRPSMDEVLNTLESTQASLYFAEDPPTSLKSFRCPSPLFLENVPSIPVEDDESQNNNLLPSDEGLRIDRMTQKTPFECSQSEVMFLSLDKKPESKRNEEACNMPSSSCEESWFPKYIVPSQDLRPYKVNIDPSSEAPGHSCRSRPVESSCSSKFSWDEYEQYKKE
Chain of RSKL1 domain1 (Q96S38 whole entry, the tested form may be a part): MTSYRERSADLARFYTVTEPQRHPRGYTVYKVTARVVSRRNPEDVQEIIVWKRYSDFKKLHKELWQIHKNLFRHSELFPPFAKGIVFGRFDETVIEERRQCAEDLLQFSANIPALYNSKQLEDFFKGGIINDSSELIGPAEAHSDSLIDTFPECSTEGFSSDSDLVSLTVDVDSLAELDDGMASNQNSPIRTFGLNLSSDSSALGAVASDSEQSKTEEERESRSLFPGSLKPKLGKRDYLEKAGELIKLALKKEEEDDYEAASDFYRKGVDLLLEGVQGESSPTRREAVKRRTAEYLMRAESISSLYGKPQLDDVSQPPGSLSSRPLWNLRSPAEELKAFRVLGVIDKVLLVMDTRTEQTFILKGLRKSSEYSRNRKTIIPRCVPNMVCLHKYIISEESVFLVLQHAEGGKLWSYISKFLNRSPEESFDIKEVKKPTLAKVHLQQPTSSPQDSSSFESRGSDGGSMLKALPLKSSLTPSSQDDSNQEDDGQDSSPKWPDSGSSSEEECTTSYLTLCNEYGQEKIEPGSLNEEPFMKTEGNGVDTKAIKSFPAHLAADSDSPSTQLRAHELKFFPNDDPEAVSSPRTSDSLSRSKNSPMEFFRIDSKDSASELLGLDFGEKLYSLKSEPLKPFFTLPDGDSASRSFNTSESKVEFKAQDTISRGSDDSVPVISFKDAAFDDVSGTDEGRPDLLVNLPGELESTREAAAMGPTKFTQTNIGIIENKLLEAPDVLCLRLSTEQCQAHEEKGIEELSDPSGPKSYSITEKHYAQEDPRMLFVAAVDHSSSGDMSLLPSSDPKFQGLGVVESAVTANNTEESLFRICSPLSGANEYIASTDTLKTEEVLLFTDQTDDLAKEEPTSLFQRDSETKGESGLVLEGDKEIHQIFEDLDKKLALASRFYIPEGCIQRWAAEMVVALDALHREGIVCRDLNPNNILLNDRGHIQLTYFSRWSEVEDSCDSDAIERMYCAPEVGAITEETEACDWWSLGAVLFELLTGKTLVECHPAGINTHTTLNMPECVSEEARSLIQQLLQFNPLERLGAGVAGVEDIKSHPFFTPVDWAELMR
Chain of NDR2 (Q9Y2H1 whole entry): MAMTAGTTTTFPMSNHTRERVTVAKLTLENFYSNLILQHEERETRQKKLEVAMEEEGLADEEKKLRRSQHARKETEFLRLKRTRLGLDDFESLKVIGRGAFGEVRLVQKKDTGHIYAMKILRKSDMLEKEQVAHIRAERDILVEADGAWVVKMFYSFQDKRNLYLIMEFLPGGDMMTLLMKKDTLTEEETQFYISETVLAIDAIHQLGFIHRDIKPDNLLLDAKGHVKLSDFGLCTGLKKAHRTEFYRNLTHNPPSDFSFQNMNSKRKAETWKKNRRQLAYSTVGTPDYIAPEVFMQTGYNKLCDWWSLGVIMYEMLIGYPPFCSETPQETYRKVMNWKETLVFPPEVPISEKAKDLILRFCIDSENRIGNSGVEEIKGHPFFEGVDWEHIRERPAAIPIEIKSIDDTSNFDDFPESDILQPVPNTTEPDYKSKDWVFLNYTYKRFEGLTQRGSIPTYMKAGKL
Chain of PRPK (Q96S44 whole entry): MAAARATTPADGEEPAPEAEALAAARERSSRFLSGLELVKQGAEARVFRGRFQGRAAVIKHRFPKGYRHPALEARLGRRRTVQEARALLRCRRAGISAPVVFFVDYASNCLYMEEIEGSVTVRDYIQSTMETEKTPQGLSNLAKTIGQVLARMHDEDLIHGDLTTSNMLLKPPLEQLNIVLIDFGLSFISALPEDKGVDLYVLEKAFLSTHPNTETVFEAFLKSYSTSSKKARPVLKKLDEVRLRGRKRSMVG

In the case of `Cn1cc(-c2c[nH]c3ncnc(N4CCOCC4)c23)cn1` [Example 1, 5-(1-Methyl-1H-pyrazol-4-yl)-4-(morpholin-4-yl)-7H-pyrrolo[2,3-d]pyrimidine], the inhibition at 0.1 µM (SGK3; 0.1 μM) is reported as 2.5%, the inhibition at 1 µM (SGK3; 1 μM) is reported as 9.9% and the inhibition at 0.1 µM (PI4KB; 0.1 μM) is reported as 34%. It also gave an inhibition at 1 µM (PI4KB; 1 μM) of 16.1%, an inhibition at 0.1 µM (FES; 0.1 μM) of 4.3% and an inhibition at 1 µM (FES; 1 μM) of -0.9%. For the same molecule, the inhibition at 0.1 µM (MAP3K4; 0.1 μM) was -14%, the inhibition at 1 µM (MAP3K4; 1 μM) was 6.9% and the inhibition at 0.1 µM (MST3; 0.1 μM) was 10.9%. For the same molecule, the inhibition at 1 µM (MST3; 1 μM) was 28.4%, the inhibition at 0.1 µM (LOK; 0.1 μM) was 5.7% and the inhibition at 1 µM (LOK; 1 μM) was 22.6%. It also gave an inhibition at 0.1 µM (AMPKa1; 0.1 μM) of 1.5%, an inhibition at 1 µM (AMPKa1; 1 μM) of 27% and an inhibition at 0.1 µM (PIK3CG; 0.1 μM) of -18.6%. It also gave an inhibition at 1 µM (PIK3CG; 1 μM) of -62.9%, an inhibition at 0.1 µM (PRPK; 0.1 μM) of -3.4% and an inhibition at 1 µM (PRPK; 1 μM) of -13.8%. The inhibition at 0.1 µM (GSK3B; 0.1 μM) was 2.4%, the inhibition at 1 µM (GSK3B; 1 μM) was -5.2% and the inhibition at 0.1 µM (CDK2; 0.1 μM) was -12.1%. The inhibition at 1 µM (CDK2; 1 μM) was 9.5%, the inhibition at 0.1 µM (PIK3CB; 0.1 μM) was -2.6% and the inhibition at 1 µM (PIK3CB; 1 μM) was -29.8%. For the same molecule, the inhibition at 0.1 µM (NEK9; 0.1 μM) was -0.9%, the inhibition at 1 µM (NEK9; 1 μM) was 12.6% and the inhibition at 0.1 µM (CaMK2g; 0.1 μM) was -16.9%. The inhibition at 1 µM (CaMK2g; 1 μM) was -15.5%, the percent inhibition (TAO1, TAO3; 0.1 μM) was −24% and the percent inhibition (TAO1, TAO3; 1 μM) was −14.9%. The inhibition at 0.1 µM (MLKL; 0.1 μM) was 1.6%, the inhibition at 1 µM (MLKL; 1 μM) was 8.4% and the inhibition at 0.1 µM (ACK; 0.1 μM) was 5.2%. The inhibition at 1 µM (ACK; 1 μM) was -8%, the inhibition at 0.1 µM (IRAK3; 0.1 μM) was 30.1% and the inhibition at 1 µM (IRAK3; 1 μM) was 68.7%. For the same molecule, the percent inhibition (RSK1, RSK2, RSK3 domain1; 0.1 μM) was 3%, the percent inhibition (RSK1, RSK2, RSK3 domain1; 1 μM) was 18.7% and the inhibition at 0.1 µM (CaMK1d; 0.1 μM) was 8.4%. The inhibition at 1 µM (CaMK1d; 1 μM) was 3.2%, the percent inhibition ([1]; 0.1 μM) was −18% and the percent inhibition ([1]; 1 μM) was 4.9%. For the same molecule, the inhibition at 0.1 µM (GCK; 0.1 μM) was 4.4%, the inhibition at 1 µM (GCK; 1 μM) was -6.7% and the inhibition at 0.1 µM (PYK2; 0.1 μM) was 5.9%. It also gave an inhibition at 1 µM (PYK2; 1 μM) of 19.5%, an inhibition at 0.1 µM (RSKL1 domain1; 0.1 μM) of 5.5% and an inhibition at 1 µM (RSKL1 domain1; 1 μM) of -0.2%. For the same molecule, the inhibition at 0.1 µM (JAK2 domain2; 0.1 μM) was 13.8%, the inhibition at 1 µM (JAK2 domain2; 1 μM) was 16.7% and the inhibition at 0.1 µM (GCN2; 0.1 μM) was 0.1%. It also gave an inhibition at 1 µM (GCN2; 1 μM) of -25.1%, an IC50 (mutant G2019S LRRK2) of 36 nM and a percent inhibition (CDK11, CDK8; 0.1 μM) of 4.4%. It also gave a percent inhibition (CDK11, CDK8; 1 μM) of 2.4%, an inhibition at 0.1 µM (GSK3A; 0.1 μM) of -0.2% and an inhibition at 1 µM (GSK3A; 1 μM) of -11.4%. For the same molecule, the inhibition at 0.1 µM (BRAF; 0.1 μM) was -6.5%, the inhibition at 1 µM (BRAF; 1 μM) was -51.5% and the inhibition at 0.1 µM (NDR2; 0.1 μM) was 22.8%. The inhibition at 1 µM (NDR2; 1 μM) was 31.2%, the inhibition at 0.1 µM (ILK; 0.1 μM) was -34% and the inhibition at 1 µM (ILK; 1 μM) was -56.6%.

— US9156845B2, “4-(substituted amino)-7H-pyrrolo[2,3-d] pyrimidines as LRRK2 inhibitors” (Pfizer Inc., priority 2012, dated 2015)
